According to patent US5326882A, “Chemiluminescent 3-(substituted Adamant-2'-Ylidene) 1,2-dioxetanes” (Tropix, Inc., priority 1992, dated 1994):

Experiments:
Assay type in all cases: biochemical
[1] = biological target: T1, alkaline phosphatase (calf intestine; Biozyme) (Bos taurus, UniProt P19111); experiment: Total dephosphorylation, chemiluminescence decay (Example XIII); details: 30° C., carbonate/bicarbonate buffer
T1 construct: purchased Biozyme; host or cells: calf intestine
Method: A comparison of the total luminescence emission from AMPPD and from the corresponding 1,2-dioxetanes whose adamant-2'-ylidene groups are monosubstituted with hydroxy (A and B isomers), chloro and bromo groups was made by carrying out total dephosphorylation experiments on each of these compounds.
An aqueous solution of the 1,2-dioxetane (4.0 mm) in 0.05M sodium carbonate/sodium bicarbonate containing 1 mM magnesium chloride was prepared and then equilibrated at 30° C. Ten μl of a 7.64×10M aqueous solution of alkaline phosphatase (calf intestine; Biozyme) was then added, and the chemiluminescence from the resulting solution was recorded using a Turner Model 20E luminometer (Turner Instruments; Sunnyvale, Calif.).
The rates of chemiluminescence decay for each of the five compounds in question, expressed in relative light units (RLU's) per minute, are given in the following table.

alkaline phosphatase [2] = biological target: T2, alkaline phosphatase (Bos taurus, UniProt P19111); experiment: Chemiluminescent signal and signal:background with enhancer polymers (Example XVII)
T2 sequence (P19111 20-506 limits assumed): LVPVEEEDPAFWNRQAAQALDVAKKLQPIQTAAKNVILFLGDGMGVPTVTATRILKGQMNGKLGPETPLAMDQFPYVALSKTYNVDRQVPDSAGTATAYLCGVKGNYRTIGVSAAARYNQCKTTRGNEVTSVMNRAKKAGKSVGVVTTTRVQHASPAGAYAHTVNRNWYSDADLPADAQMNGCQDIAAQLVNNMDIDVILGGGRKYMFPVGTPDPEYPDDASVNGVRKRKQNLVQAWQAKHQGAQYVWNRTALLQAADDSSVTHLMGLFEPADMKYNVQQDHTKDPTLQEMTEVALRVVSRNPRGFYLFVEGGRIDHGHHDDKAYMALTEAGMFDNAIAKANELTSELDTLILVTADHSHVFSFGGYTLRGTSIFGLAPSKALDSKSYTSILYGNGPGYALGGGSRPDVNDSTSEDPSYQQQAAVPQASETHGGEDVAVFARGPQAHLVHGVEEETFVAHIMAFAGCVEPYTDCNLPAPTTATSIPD
Method: Four sets of three tubes each, each tube in each set containing 450 μl of a 0.4 mM aqueous solution of one of the four 1,2-dioxetanes being compared in 0.1M diethanolamine containing 1 mM magnesium chloride, 0.02% sodium azide and 0.1% of the enhancer polymer, pH 10.0 (substrate buffer) were prepared and the background signal from each tube measured using a Berthold LB 952T luminometer (Berthold Instruments; Wildbad, Federal Republic of Germany).
Next, 50 μl of an aqueous solution, 2.83×10^-12 M of alkaline phosphatase in 0.1M diethanolamine containing 1 mM magnesium chloride, 0.02% sodium azide, pH 10.0, (final enzyme concentration 2.83×10^-13 M) was added to each tube and the chemiluminescent signals were measured in the luminometer at 5 and 20 minutes. The intensity of the chemiluminescent signals and the signal: background ratios obtained for each of the four 1,2-dioxetanes in the presence of the enhancer polymers are shown in Table III below.
The enhancer polymers used, and the symbols for such polymers used in Table III, were the following: […]

alkaline phosphatase [3] = biological target: T2, alkaline phosphatase; experiment: Alkaline phosphatase detection limits, LabSystems Luminoskan (Example XXV)
Method: The detection means for alkaline phosphatase with different chemiluminescent 1,2-dioxetane substrates were determined as follows: Duplicates of serial dilutions (1 to 3) of alkaline phosphates were incubated at room temperature with 0.4 mM dioxetane in 0.1 M diethanolamine, 1 mM MgCl2, pH 10.0, containing 1 mg/ml of either of the polymeric enhancers Enhancer 1 or Enhancer 2, in […].
Following either a 5 or a 20 minute incubation with a substrate, the chemiluminescence intensity was measured as a 5 second integrated Relative Light Units (RLU) and plotted as in FIG. 10. […] The alkaline phosphatase concentrations at twice background were used as the detection limits in Table 5.
The luminometer used in this example was LabSystems Luminoskan microtiter plate reader.

alkaline phosphatase [4] = biological target: T2, alkaline phosphatase; experiment: Alkaline phosphatase detection limits, Wilj microtiter plate luminometer (Example XXVI); details: 23 MINUTE INCUBATION

T1 sequence (P19111 20-506 limits assumed): as above

COC1(c2cccc(OP(=O)(O)O)c2)OOC12C1CC3CC2CC(Cl)(C3)C1 (stereo not drawn) [Cl-AMPPD, disodium 3-(4-methoxyspiro-[1,2-dioxetane-3,2'-(5'-chloro)tricyclo[3.3.1.1^3,7]decan]-4-yl) phenyl phosphate]
Total Decay Time [1]: 15 min | Decay Rate I ([1]; RLU's per minute): 1.2 RLU's per minute | Decay Rate II ([1]; RLU's per minute): 5.5 RLU's per minute | S/N (alkaline phosphatase [2]; polymer BAEDM, 5 min): 102.2 | SIGNAL (alkaline phosphatase [2]; polymer BAEDM, 5 min): 9086.9 | S/N (alkaline phosphatase [2]; polymer BAEDM, 20 min): 193.3 | SIGNAL (alkaline phosphatase [2]; polymer BAEDM, 20 min): 17185.4 | S/N (alkaline phosphatase [2]; polymer BAEDM, time 0): 1.0 | SIGNAL (alkaline phosphatase [2]; polymer BAEDM, time 0 (background, before enzyme)): 88.9 | S/N (alkaline phosphatase [2]; polymer DAA TMQ, 5 min): 125.1 | SIGNAL (alkaline phosphatase [2]; polymer DAA TMQ, 5 min): 10328.7 | S/N (alkaline phosphatase [2]; polymer DAA TMQ, 20 min): 159.9 | SIGNAL (alkaline phosphatase [2]; polymer DAA TMQ, 20 min): 13204.2 | S/N (alkaline phosphatase [2]; polymer DAA TMQ, time 0): 1.0 | SIGNAL (alkaline phosphatase [2]; polymer DAA TMQ, time 0 (background, before enzyme)): 82.6 | S/N (alkaline phosphatase [2]; polymer DMQ TEQ, 5 min): 514.6 | SIGNAL (alkaline phosphatase [2]; polymer DMQ TEQ, 5 min): 39712.8 | S/N (alkaline phosphatase [2]; polymer DMQ TEQ, 20 min): 747.2 | SIGNAL (alkaline phosphatase [2]; polymer DMQ TEQ, 20 min): 57658.0 | S/N (alkaline phosphatase [2]; polymer DMQ TEQ, time 0): 1.0 | SIGNAL (alkaline phosphatase [2]; polymer DMQ TEQ, time 0 (background, before enzyme)): 77.2 | SIGNAL (alkaline phosphatase [2]; polymer EMERALD (sapphire and fluorescein), time 0 (background, before enzyme)): 3434.0 | S/N (alkaline phosphatase [2]; polymer EMERALD, 5 min): 583.2 | SIGNAL (alkaline phosphatase [2]; polymer EMERALD, 5 min): 400510.8 | S/N (alkaline phosphatase [2]; polymer EMERALD, 20 min): 964.0 | SIGNAL (alkaline phosphatase [2]; polymer EMERALD, 20 min): 662054.4 | S/N (alkaline phosphatase [2]; polymer EMERALD, time 0): 1.0 | S/N (alkaline phosphatase [2]; polymer MPB, 5 min): 257.8 | SIGNAL (alkaline phosphatase [2]; polymer MPB, 5 min): 22170.5 | S/N (alkaline phosphatase [2]; polymer MPB, 20 min): 306.5 | SIGNAL (alkaline phosphatase [2]; polymer MPB, 20 min): 29133.9 | S/N (alkaline phosphatase [2]; polymer MPB, time 0): 1.0 | SIGNAL (alkaline phosphatase [2]; polymer MPB, time 0 (background, before enzyme)): 86.0 | S/N (alkaline phosphatase [2]; polymer NONE, 5 min): 47.9 | SIGNAL (alkaline phosphatase [2]; polymer NONE, 5 min, enzyme 2.83×10^-13 M): 4083.6 | S/N (alkaline phosphatase [2]; polymer NONE, 20 min): 52.3 | SIGNAL (alkaline phosphatase [2]; polymer NONE, 20 min, enzyme 2.83×10^-13 M): 4460.9 | S/N (alkaline phosphatase [2]; polymer NONE, time 0): 1.0 | SIGNAL (alkaline phosphatase [2]; polymer NONE, time 0 (background, before enzyme)): 85.3 | S/N (alkaline phosphatase [2]; polymer S/TMQ(1:2), 5 min): 46.7 | SIGNAL (alkaline phosphatase [2]; polymer S/TMQ(1:2), 5 min): 3121.4 | S/N (alkaline phosphatase [2]; polymer S/TMQ(1:2), 20 min): 100.2 | SIGNAL (alkaline phosphatase [2]; polymer S/TMQ(1:2), 20 min): 6696.9 | S/N (alkaline phosphatase [2]; polymer S/TMQ(1:2), time 0): 1.0 | SIGNAL (alkaline phosphatase [2]; polymer S/TMQ(1:2), time 0 (background, before enzyme)): 66.8 | S/N (alkaline phosphatase [2]; polymer S/TMQ(1:4), 5 min): 93.9 | SIGNAL (alkaline phosphatase [2]; polymer S/TMQ(1:4), 5 min): 5631.2 | S/N (alkaline phosphatase [2]; polymer S/TMQ(1:4), 20 min): 165.0 | SIGNAL (alkaline phosphatase [2]; polymer S/TMQ(1:4), 20 min): 9957.4 | S/N (alkaline phosphatase [2]; polymer S/TMQ(1:4), time 0): 1.0 | SIGNAL (alkaline phosphatase [2]; polymer S/TMQ(1:4), time 0 (background, before enzyme)): 60.0 | SIGNAL (alkaline phosphatase [2]; polymer SAPPHIRE (BDMQ), time 0 (background, before enzyme)): 296.0 | S/N (alkaline phosphatase [2]; polymer SAPPHIRE, 5 min): 371.6 | SIGNAL (alkaline phosphatase [2]; polymer SAPPHIRE, 5 min): 51584.5 | S/N (alkaline phosphatase [2]; polymer SAPPHIRE, 20 min): 505.4 | SIGNAL (alkaline phosphatase [2]; polymer SAPPHIRE, 20 min): 70161.6 | S/N (alkaline phosphatase [2]; polymer SAPPHIRE, time 0): 1.0 | SIGNAL (alkaline phosphatase [2]; polymer TBQ-FLUOR (TBQ and fluorescein), time 0 (background, before enzyme)): 5882.7 | S/N (alkaline phosphatase [2]; polymer TBQ-FLUOR, 5 min): 839.4 | SIGNAL (alkaline phosphatase [2]; polymer TBQ-FLUOR, 5 min): 987572.0 | S/N (alkaline phosphatase [2]; polymer TBQ-FLUOR, 20 min): 1280.0 | SIGNAL (alkaline phosphatase [2]; polymer TBQ-FLUOR, 20 min): 1505971.2 | S/N (alkaline phosphatase [2]; polymer TBQ-FLUOR, time 0): 1.0 | S/N (alkaline phosphatase [2]; polymer TBQ, 5 min): 1249.6 | SIGNAL (alkaline phosphatase [2]; polymer TBQ, 5 min): 148394.6 | S/N (alkaline phosphatase [2]; polymer TBQ, 20 min): 1763.9 | SIGNAL (alkaline phosphatase [2]; polymer TBQ, 20 min): 209466.8 | S/N (alkaline phosphatase [2]; polymer TBQ, time 0): 1.0 | SIGNAL (alkaline phosphatase [2]; polymer TBQ, time 0 (background, before enzyme)): 118.8 | S/N (alkaline phosphatase [2]; polymer TEQ, 5 min): 397.0 | SIGNAL (alkaline phosphatase [2]; polymer TEQ, 5 min): 26551.0 | S/N (alkaline phosphatase [2]; polymer TEQ, 20 min): 513.5 | SIGNAL (alkaline phosphatase [2]; polymer TEQ, 20 min): 34467.2 | S/N (alkaline phosphatase [2]; polymer TEQ, time 0): 1.0 | SIGNAL (alkaline phosphatase [2]; polymer TEQ, time 0 (background, before enzyme)): 67.1 | S/N (alkaline phosphatase [2]; polymer TMQ, 5 min): 165.0 | SIGNAL (alkaline phosphatase [2]; polymer TMQ, 5 min): 9941.0 | S/N (alkaline phosphatase [2]; polymer TMQ, 20 min): 226.4 | SIGNAL (alkaline phosphatase [2]; polymer TMQ, 20 min): 13640.5 | S/N (alkaline phosphatase [2]; polymer TMQ, time 0): 1.0 | SIGNAL (alkaline phosphatase [2]; polymer TMQ, time 0 (background, before enzyme)): 50.3 | Alkaline phosphatase detection limit (at 2× background) (alkaline phosphatase [3]; SAPPHIRE II, 5 MINUTE INCUBATION): 0.0008 pM | Alkaline phosphatase detection limit (at 2× background) (alkaline phosphatase [3]; SAPPHIRE II, 20 MINUTE INCUBATION): 0.00043 pM | Alkaline phosphatase detection limit (at 2× background) (alkaline phosphatase [3]; SAPPHIRE, 5 MINUTE INCUBATION): 0.0014 pM | Alkaline phosphatase detection limit (at 2× background) (alkaline phosphatase [3]; SAPPHIRE, 20 MINUTE INCUBATION): 0.0005 pM | Alkaline phosphatase detection limit (at 2× background) (alkaline phosphatase [4]; SAPPHIRE II): 0.00021 pM | Alkaline phosphatase detection limit (at 2× background) (alkaline phosphatase [4]; SAPPHIRE): 0.000705 pM
